# “Also recorded” adds a separate entry of the source.
# Columns and labels:
# [1] = test system: MCF7 breast cancer cell lines; experiment: xCelligence proliferation assay, MCF7; type: cell-based; conditions: juglone + BDM
# SK28 cells [2] = experiment: SK28 cell viability (MTS assay); type: cell-based; conditions: SK28, concentration-dependent, quadruplicate
# Protocol: (§1) Tests were conducted in quadruplicate.
# SK28 melanoma cells = experiment: Killing by juglone combinations, SK28; type: cell-based
# BxPC3 cells [3] = experiment: xCelligence proliferation assay, BxPC3; type: cell-based; conditions: increasing juglone + 45 μM BDM, 24 hours
# Protocol: To independently verify the MTS and clonogenic assays described in the preceding Examples, an assay was conducted using a xCelligence real-time cell analyzer (ACEA Biosciences, Inc.), using a label-free, non-invasive method to monitor adherent cell behavior, including proliferation, spreading and compound-mediated cytotoxicity. The system is based on detecting impedance differences within an electrical circuit created in microelectrodes at the base of culture wells; these differences are converted into a cell index (CI), a value that is influenced by a variety of factors, such as cell number, cell size and cell adhesion. The effect of the TDG inhibitor juglone, in combination with bendamustine (BDM) and gemcitabine (GCB), was assessed on the growth of various cancer cells. BxPC3 cells were treated with 45 μM BDM, in combination with increasing concentrations of juglone, and proliferation was followed over 24 hours.
# BxPC3 cells [4] = experiment: MTS assay, TDG inhibitor combinations, BxPC3; type: cell-based; conditions: 10 μM juglone + increasing BDM, 72 and 96 hours
# Protocol: (§2) Two TDG inhibitors, juglone and closantel, were tested for their ability to kill two PaC cell lines, BxPC3 and Panc1 cells, in MTS assays. Cells were treated for 72 and 96 hours with 10 μM juglone and 20 μM closantel, in combination with increasing concentrations of BDM.
# MCF7 breast cancer cells = experiment: Killing by juglone combinations, MCF7; type: cell-based
# [5] = test system: HCT116 colon cancer cells; experiment: Killing by juglone combinations, HCT116; type: cell-based
# Protocol: [The source words this procedure for another cell line and reports this cell line under the same test.] as §2
# SK28 cells [6] = experiment: SK28 clonogenic assay; type: cell-based; conditions: SK28, concentration-dependent, quadruplicate
# Protocol: as §1
# [7] = test system: TDG knock-out MEFs transduced with glycosylase-dead human TDG cDNA; experiment: Cell cycle FACS after gemcitabine, knock-out MEFs with glycosylase-dead hTDG; type: cell-based, mouse; conditions: versus knock-out cells transduced with wild type human TDG cDNA
# Protocol: (§3) The biologic function of TDG includes a non-enzymatic role as transcriptional co-activator, mediated by protein-protein interactions, and an enzymatic role related to its DNA N-glycosylase activity. To determine whether sensitization to gemcitabine was due to inactivation of TDG enzymatic function, TDG knock-out MEFs transduced with wild type or glycosylase-dead human TDG cDNA were evaluated.
# [8] = test system: TDG knock-out mouse embryo fibroblast lines (MEFs); experiment: Cell cycle FACS after gemcitabine, TDG knock-out MEFs; type: cell-based; conditions: 50 nM gemcitabine, 48 hours
# Protocol: (§4) DNA content analysis via flow cytometry. Following indicated drug treatments, cells were fixed with 70% ethanol. For analysis, cells were stained with propidium iodide, RNase A and sodium citrate. Cells were incubated at 37° C. for 30 minutes before being analyzed using a Becton Dickinson single laser three-fluorescence FACScan flow analyzer and Cell Quest software (Becton Dickinson). DNA content was acquired from 10,000 events and FlowJo software was used to process the data.
# (§5) Isogenic, littermate-derived, thymine DNA glycosylase (TDG) wild type and knock-out mouse embryo fibroblast lines (MEFs) were treated with a sub-lethal dose of 50 nM gemcitabine for 48 hours. At the end of the treatment, cells were collected, stained with propidium iodide and analyzed by flow cytometry.
# [9] = test system: TDG wild type mouse embryo fibroblast lines (MEFs); experiment: Cell cycle FACS after gemcitabine, wild type MEFs; type: cell-based; conditions: 50 nM gemcitabine, 48 hours
# Protocol: as §4, §5
# [10] = test system: BxPC3 pancreatic cancer cells; experiment: Clonogenic assay, BxPC3 with or without TDG knockdown; type: cell-based; conditions: TDG knockdown (C8) versus pLKO-infected BxPC3
# Protocol: Clonogenic assays were conducted on pancreatic cancer (PaC) cell line BxPC3 infected with empty pLKO vector or with the C8 lentivirus that downregulates TDG. Even in the absence of gemcitabine, colony formation by the TDG knockdown cells was reduced nearly 60% (FIG. 13). In FIG. 10, the maximum number of colonies formed by pLKO-infected BxPC3 cells was set as 100%.
# [11] = test system: TDG knock-out MEFs transduced with wild type human TDG cDNA; experiment: Cell cycle FACS after gemcitabine, knock-out MEFs with wild type hTDG; type: cell-based, mouse; conditions: knockout MEFs reconstituted with wild type TDG
# Protocol: as §3
# Hela cells [12] = experiment: Cell viability MTS assay, Hela; type: cell-based
# Protocol: (§6) Cell viability and apoptosis assays. Hela cells were seeded into 96 well plates at a density of 1500 cells per well. Cells were treated with BDM (3.125-200 μM) for 24 h. After this time cells were additionally treated either with UCN-01 (100 nM), Chk2 inhibitor (100 nM) or Gö6976 (200 nM) for an additional 24 h. MTS reagent (CellTiter 96® AQueous Proliferation Assay, Promega) was added to each well for 4 h before the absorbance values at 490 nm was read. Experiments were conducted in triplicate, 3 independent times. Data presented are the average absorbance values, relative to control±SD. For apoptosis determination, cells seeded and treated as stated above were stained with Guava Nexin Reagent® (Millipore). Analysis was conducted using the Easycyte module and Cytosoft Software® (Millipore). Experiments were conducted 3 independent times, collecting 2000 events each time. Data shown is the average±SD.
# Hela cells [13] = experiment: Electron microscopy of mitotic chromosomes; type: cell-based
# Protocol: Electron microscopy. Hela cells were seeded into 6 cm dishes, synchronized with thymidine (2 mM) and treated with BDM 50 μM, 200 μM or gemcitabine (100 μM) for 18 h. Cells treated with UCN-01 (100 μM) for an addition 9 h to obtain mitotic cells were fixed with glutaraldehyde solution (3%, pH 7.4). Samples were prepared for electron microscopy analysis.
# Hela cells [14] = experiment: Apoptosis assay (Guava Nexin Reagent); type: cell-based; conditions: BDM 200 μM followed by Chk1 inhibitor; p<0.01 vs. control
# Protocol: as §6
# Hela cells [15] = experiment: Metaphase spreads; type: cell-based
# Protocol: Metaphase spreads. Mitotic cells were collected from untreated and bendamustine at 50 μM or 200 μM+UCN-01 (100 nM) treatments. For visualizing, cells were dropped onto a glass slides and stained with DAPI. Mitotic spreads were viewed and imaged using fluorescence microscopy. Images shown are representative of those observed.
# [16] = test system: Hela cells stably expressing GFP:histone H2B; experiment: Time-lapse video microscopy of mitosis; type: cell-based
# Protocol: Time-lapse video microscopy. Hela cells stably expressing GFP:histone H2B were seeded into 6 well plates and synchronized in S phase using thymidine (2 mM). […] Where appropriate, UCN-01 (100 nM) was added to wells before being supplemented with HEPES (25 mM), layered with mineral oil (Sigma) and placed into a housing chamber which maintained the temperature at 37° C. Using a Nikon TE2000 microscope (Nikon) controlled by MetaMorph software (Molecular Devices), brightfield and fluorescent images were captured every 5 minutes for up to 48 h. Individual movies were analyzed manually and a minimum of 100 cells per treatment scored for the indicated measurements. For montages, selected frames representing different cell morphologies are presented.
# [17] = 50 μM BDM 24 h, then UCN-01 100 nM
smiles,measurement,setting,value
"O=C1C=CC(=O)c2c(O)cccc21 [juglone, 5-hydroxynaphthoquinone]",proliferation (normalized cell index),[1],A similar result was observed
same,cell viability,SK28 cells [2],reduction of SK28 cell viability
same,cell viability,SK28 cells [2]; listed as Juglone,reduce cell viability
same,killing in combination with bendamustine,SK28 melanoma cells; juglone + bendamustine,more effectively killed
same,killing in combination with gemcitabine,SK28 melanoma cells; juglone + gemcitabine,more effectively killed
same,proliferation (normalized cell index),BxPC3 cells [3],suppressed proliferation more than juglone alone
same,killing effect in combination with BDM,BxPC3 cells [4],synergistic killing effect
same,killing effect in combination with BDM,MCF7 breast cancer cells; juglone + BDM,synergistic effect
same,killing effect in combination with gemcitabine,MCF7 breast cancer cells; juglone + gemcitabine,synergistic killing
same,killing in combination with bendamustine,[5]; juglone + bendamustine,more effectively killed
same,killing in combination with gemcitabine,[5]; juglone + gemcitabine,more effectively killed
same,clonogenic capacity / colony-forming ability,SK28 cells [6],reduction of SK28 cell viability (MTS assay) and colony-forming ability; also recorded: reduction of clonogenic capacity
same,clonogenic capacity / colony-forming ability,SK28 cells [6]; listed as Juglone,reduce cell viability and clonogenic capacity
"Nc1ccn([C@@H]2O[C@H](CO)[C@@H](O)C2(F)F)c(=O)n1 [gemcitabine, 2′,2′-difluorodeoxycytidine]",sensitivity to gemcitabine (flow cytometry),[7],increased sensitivity
same,cells in S phase,[8],52.3%
same,cells in S phase,[9],20.7%
same,colony formation with increasing gemcitabine,[10],"further reduced, and this reduction was greater than pLKO-infected cells expressing TDG"
same,response to gemcitabine (flow cytometry),[11],responded the same as wild type MEFs
CN[C@@H]1C[C@H]2O[C@@](C)([C@@H]1OC)n1c3ccccc3c3c4c(c5c6ccccc6n2c5c31)C(=O)N[C@@H]4O [UCN-01],sensitization to killing by BDM (viability),"Hela cells [12]; 200 μM BDM 24 h, then Chk1 inhibitor 24 h",viability was significantly reduced
same,sensitization to killing by BDM,"Hela cells [12]; BDM up to 100 μM 24 h, then UCN-01 100 nM 24 h",did not sensitize
same,"cell viability, UCN-01 alone","Hela cells [12]; UCN-01 alone, any of the assays performed",no discernable effects on cell viability
same,chromosome ultra-structure (electron microscopy),Hela cells [13]; BDM 50 μM + UCN-01,intact chromosomes were clearly visualized
same,chromosome ultra-structure (electron microscopy),Hela cells [13]; BDM 200 μM + UCN-01,highly fragmented
same,percentage of apoptotic cells,Hela cells [14],exhibited an increase in the percentage of apoptotic cells
same,chromosome morphology in metaphase spreads,Hela cells [15]; BDM 50 μM + UCN-01,no obvious gross structural defects
same,chromosome morphology in metaphase spreads,Hela cells [15]; BDM 200 μM + UCN-01,extremely abnormal
same,effect on BDM-induced arrest,[16]; [17],abrogated the arrest
same,time to start of mitotic entry after UCN-01 addition,[16]; [17],4 h
same,delay at metaphase (average),"[16]; 50 μM BDM + UCN-01, controls 37.5±16.7 minutes",89 ± 64.7 min

# From patent US10220051B2, “Combination of DNA repair inhibition with bendamustine or gemcitabine in the treatment of cancer” (Institute for Cancer Research, priority 2012, dated 2019)
